Reference: article PMC4405029 (Bioorganic & medicinal chemistry letters, 2015)

Assays:
Assay in all cases: Electrical cell-substrate impedance sensing
Assay type in all cases: cell-based
[1] = system: recombinant EP4 receptor; conditions: ECIS, EP4 expressed in CHO cells
[2] = molecular target: T1, recombinant EP1 receptor (Homo sapiens, UniProt P34995); conditions: ECIS, EP1 expressed in CHO cells
T1 sequence (P34995 1-402): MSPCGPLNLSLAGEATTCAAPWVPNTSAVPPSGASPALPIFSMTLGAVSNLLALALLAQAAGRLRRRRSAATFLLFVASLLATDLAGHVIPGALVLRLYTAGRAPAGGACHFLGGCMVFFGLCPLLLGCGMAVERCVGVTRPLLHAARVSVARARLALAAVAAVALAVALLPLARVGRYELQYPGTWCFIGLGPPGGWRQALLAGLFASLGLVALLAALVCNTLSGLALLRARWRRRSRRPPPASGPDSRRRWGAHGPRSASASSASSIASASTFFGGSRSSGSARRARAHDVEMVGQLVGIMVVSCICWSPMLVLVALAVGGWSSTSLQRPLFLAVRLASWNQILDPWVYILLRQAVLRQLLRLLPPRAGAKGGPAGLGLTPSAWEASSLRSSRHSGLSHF

[3] = molecular target: T2, recombinant EP3 receptor (Homo sapiens, UniProt P43115); conditions: ECIS, EP3 expressed in CHO cells
T2 sequence (P43115 1-390): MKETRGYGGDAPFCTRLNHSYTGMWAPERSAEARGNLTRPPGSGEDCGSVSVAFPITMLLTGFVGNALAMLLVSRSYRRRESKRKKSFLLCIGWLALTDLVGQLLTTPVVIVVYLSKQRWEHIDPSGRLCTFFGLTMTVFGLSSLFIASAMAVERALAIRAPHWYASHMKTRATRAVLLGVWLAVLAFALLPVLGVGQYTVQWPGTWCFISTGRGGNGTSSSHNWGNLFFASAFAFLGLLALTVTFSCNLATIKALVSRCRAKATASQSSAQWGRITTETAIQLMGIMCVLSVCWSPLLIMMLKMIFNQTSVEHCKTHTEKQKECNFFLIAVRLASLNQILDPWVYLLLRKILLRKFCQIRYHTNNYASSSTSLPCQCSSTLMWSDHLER

Row | SMILES | Activation of EP4 receptor (cell impedance) [1] | Activation of EP1 receptor (cell impedance) [2] | Activation of EP3 receptor (cell impedance) [3]
1 | O=C(CCC/C=C\C[C@H]1C(=O)C[C@@H](O)[C@@H]1/C=C/[C@@H](O)CCc1ccccc1)NCCO [12a] | did not activate | did not activate | did not activate
2 | CCCCC[C@H](O)/C=C/[C@H]1[C@H](O)CC(=O)[C@@H]1C/C=C\CCCC(=O)NCCO [PGE2-EA, prostaglandin-ethanolamide] | did not activate | did not activate | did not activate
3 | CCCCC[C@H](O)/C=C/[C@H]1[C@H](O)CC(=O)[C@@H]1C/C=C\CCCC(=O)O [PGE2] | rapid change in impedance | rapid change in impedance | rapid change in impedance
